Assay results from US12606805B2, “Tymovirus virus and virus-like particles as nanocarriers for imaging and therapeutic agents” (priority 2017, dated 2026).

How the values were obtained:
[1] = system: A2780 (human ovarian cancer) cells; assay: MTT cell viability assay, DOX-PhMV versus DOX; type: cell-based; conditions: 24 h
Description: All assays were carried out at least three times.

PhMV-derived VLPs = biological target: T1, PhMV-derived VLPs (Physalis mottle virus, UniProt P36351); conditions: for Number of molecules loaded per VLP: 5000-fold molar excess per particle; for Number of guest molecules loaded per VLP (affinity of the VLPs): infusion overnight at room temperature, molar excess 500 to 10,000 per VLP
T1 construct: The coat protein gene (564 bp) was inserted into the vector pRSET-A and expressed in ClearColi BL21(DE3); made in house; host or cells: E. coli ClearColi BL21(DE3)
Description: The VLPs were loaded with rhodamine B, fluorescein, crystal violet, MTX dihydrochloride (all Sigma-Aldrich), PS (cationic zinc ethynylphenyl porphyrin, full name 5-(4-ethynylphenyl)-10,15,20-tris)4-methylpyridin-4-ium-1-yl)porphyrin zinc(II) triiodide), or DOX hydrochloride (Indofine Chemical Company). The VLPs (1 mg/mL in KP buffer) were incubated with a molar excess of 500, 2500, 5000, or 10000 cargo molecules per particle overnight at room temperature in the dark, before purification over a 30% (w/v) sucrose cushion to remove excess reagents by ultracentrifugation at 52,000 rpm using a TLA 55 rotor (Beckman Coulter Inc.) at 4° C. for 1 h. PS-PhMV and DOX-PhMV were synthesized for further characterization using a 5000-fold molar excess.
A NanoDrop 2000 spectrophotometer (Thermo Fisher Scientific) was used to characterize the UV/visible spectra of native and modified VLPs. The dye load was determined using the protein concentration (measured using the Bradford assay), the Beer-Lambert law and the following dye-specific extinction coefficients: rhodamine B, F(553 nm)=116,000 M^−1 cm^−1; DOX, ε(496 nm)=11,500 M^−1 cm^−1; crystal violet, ε(590 nm)=87,000 M^−1 cm^−1; PS, ε(450 nm)=195,000 M^−1 cm^−1; MTX, ε(622 nm)=25,000 M^−1 cm^−1; sulfo-Cy5 NHS ester, ε(646 nm)=271,000 M^−1 cm^−1; Cy5.5-maleimide, 8(673 nm)=209,000 M^−1 cm^−1. The following molecular weights were used: PhMV=4.7×10^6 g mol^−1; rhodamine B=479.02 g mol^−1; DOX=579.98 g mol^−1; crystal violet=407.98 g mol^−1; PS=1130 g mol^−1; mitoxantrone=517.4 g mol^−1; Cy5=777.95 g mol^−1; Cy5.5=741.36 g mol^−1; Biotin NHS ester=341.38 g mol^−1; Biotin maleimide=451.54 g mol^−1.
Intact VLPs were incubated in a bathing solution containing the guest molecule at various molar excesses (500, 2500, 5000 and 10,000 molecules per VLP) in KP buffer with 10% (v/v) DMSO overnight at room temperature. After the reaction, excess guest molecules were removed by ultracentrifugation and the amount of protein and cargo was quantified by the Bradford assay and UV/visible spectroscopy, respectively. We applied the Beer-Lambert law and the specific extinction coefficient of each guest molecule to determine the number of cargo molecules per VLP (FIG. 5).

PC-3 cells [2] = assay: MTT cell viability assay after photodynamic therapy
Description: PC-3 cells were seeded (5000 cells/100 μL RPMI 1640/well) in a 96-well plate overnight. After two PBS washes to remove unbound and dead cells, free PS, or PS-PhMV was added to the cells in triplicate at concentrations of 0.01, 0.025, 0.05, 0.1, 0.25, 0.5, 1, 2.5 and 5.0 μM PS, and incubated for 8 h. Untreated cells and cells treated with unloaded VLPs at the equivalent protein concentration to PS-PhMV particles at the highest dose of PS were also used as controls. Free particles were washed with PBS and 100 μL of fresh medium was added. The cells were then illuminated with white light for 30 min as above. In parallel, a duplicate plate was prepared and kept in the dark as a negative control. Following phototherapy, cells were incubated for another 48 h in the dark, and their viability was subsequently measured using an MTT cell proliferation assay kit (ATCC) based on the manufacturer's instructions. A Tecan Infinite 200 PRO multimode plate reader was used to measure absorbance at 570 nm, and the percent cell viability was normalized to the untreated control. All assays were carried out at least three times.

PC-3 cells [3] = assay: LIVE/DEAD assay after photodynamic therapy; type: cell-based, human
Description: PC-3 cells were seeded (20,000 cells/500 μL RPMI/well) in a 24-well plate overnight. The cells were washed twice in PBS and incubated for 8 h in triplicates with 5.0 μM PS, 5.0 μM PS-PhMV, or the corresponding concentration of unloaded VLPs ([…] or ˜0.19 mg/mL). After washing twice in PBS, 500 μL RPMI medium was added. Photodynamic therapy was then applied using a white light source (Phillips Silhouette High Output F39T5/841 HO, Alto collection, ˜10 mW cm^−2) for 30 min (18.1 J cm^−2 at 430 nm) and cells were incubated for a further 48 h in the dark. Cell viability was determined using a LIVE/DEAD assay for mammalian cells (Thermo Fisher Scientific) following the manufacturer's procedures for cell staining, and cells were observed under a Zeiss Axio Observer Z1 motorized FL inverted microscope.

T1 sequence (P36351 whole entry, the tested form may be a part): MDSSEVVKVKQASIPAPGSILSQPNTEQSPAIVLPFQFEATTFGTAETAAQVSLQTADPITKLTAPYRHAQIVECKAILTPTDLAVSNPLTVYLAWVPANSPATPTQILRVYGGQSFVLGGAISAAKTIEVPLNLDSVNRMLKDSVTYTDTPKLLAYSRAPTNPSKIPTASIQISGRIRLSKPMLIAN

Compound | Number of molecules loaded per VLP (PhMV-derived VLPs) | Number of guest molecules loaded per VLP (affinity of the VLPs) (PhMV-derived VLPs) [molecules per particle] | also measured
COc1cccc2c1C(=O)c1c(O)c3c(c(O)c1C2=O)C[C@@](O)(C(=O)CO)C[C@@H]3O[C@H]1C[C@H](N)[C@H](O)[C@H](C)O1 [DOX, doxorubicin] | 600-800 molecules per VLP | 750 | IC50 (MTT) [1]: equivalent
O=C1c2c(O)ccc(O)c2C(=O)c2c(NCCNCCO)ccc(NCCNCCO)c21 [MTX, mitoxantrone] | – | 450 | –
C#Cc1ccc(C2=C3C=CC(=N3)C(c3cc[n+](C)cc3)=c3ccc4[n]3[Zn][n]3c2ccc3C(c2cc[n+](C)cc2)=C2C=CC(=N2)C=4c2cc[n+](C)cc2)cc1.[I-].[I-].[I-] [PS] | 160-180 molecules per VLP | ~200 | Cytotoxicity of dark controls (MTT) (PC-3 cells [2]; PC-3 cells kept in the dark): no cell killing; IC50 (PC-3 cells [2]; read-out: IC50 (cell killing, MTT), PC-3 cells, 8 h incubation, 30 min white light illumination): 50 nM; Cell viability (LIVE/DEAD), dark controls (PC-3 cells [3]; 5.0 μM, 8 h, maintained in the dark): 100%; Cell viability (LIVE/DEAD), illuminated (PC-3 cells [3]; 5.0 μM, 8 h, white light 30 min): 0%; Cytotoxicity of dark controls (LIVE/DEAD) (PC-3 cells [3]; dark controls): no cytotoxicity
CN(C)c1ccc(C(=C2C=CC(=[N+](C)C)C=C2)c2ccc(N(C)C)cc2)cc1 [crystal violet] | – | 2000 | –
CCN(CC)c1ccc2c(-c3ccccc3C(=O)O)c3ccc(=[N+](CC)CC)cc-3oc2c1.[Cl-] [rhodamine B] | – | ~200 | –
